In the NIST ThermoML archive (doi:10.1016/j.jct.2015.06.014):

Assay: molar heat capacity at constant pressure
Settings: Liquid, Large sample (1 g) DSC

FC(F)(F)CC(F)(F)F [1,1,1,3,3,3-hexafluoropropane]
molar heat capacity at constant pressure [J/K/mol]
Settings | 1480 kPa | 2490 kPa | 3540 kPa | 4560 kPa | 5410 kPa
315.15 K | 195.67 | 193.7 | 192.48 | 191.42 | 190.05
320.15 K | 198.71 | 196.59 | 194.91 | 193.7 | 192.78
325.15 K | 202.06 | 199.78 | 197.95 | 196.43 | 195.67
330.15 K | 205.71 | 203.28 | 201.45 | 199.78 | 199.02
335.15 K | 209.36 | 207.08 | 205.1 | 203.28 | 202.21
340.15 K | 213.46 | 210.73 | 208.6 | 206.77 | 205.56
345.15 K | 218.02 | 214.83 | 212.25 | 210.27 | 208.9
350.15 K | 223.34 | 219.24 | 216.35 | 214.07 | 212.4
355.15 K | – | 224.56 | 221.22 | 218.33 | 216.35
360.15 K | – | 231.1 | 226.84 | 223.5 | 221.06
365.15 K | – | 239.92 | 233.53 | 230.49 | 227.45

FC(F)CC(F)(F)F [1,1,1,3,3-pentafluoropropane]
molar heat capacity at constant pressure [J/K/mol]
Settings | 1590 kPa | 2520 kPa | 3480 kPa | 4530 kPa | 5500 kPa
315.15 K | 184.58 | 184.05 | 183.78 | 182.98 | 182.44
320.15 K | 185.79 | 185.12 | 184.72 | 183.91 | 183.24
325.15 K | 187.8 | 186.73 | 186.19 | 185.39 | 184.58
330.15 K | 191.02 | 189.95 | 189.01 | 188.07 | 187.13
335.15 K | 195.31 | 194.37 | 193.16 | 191.82 | 191.02
340.15 K | 200.13 | 199.2 | 197.85 | 196.25 | 195.44
345.15 K | 204.83 | 204.02 | 202.55 | 200.94 | 200.13
350.15 K | 209.52 | 208.44 | 207.1 | 205.5 | 204.56
355.15 K | 214.07 | 212.73 | 211.66 | 210.05 | 208.98
360.15 K | 219.3 | 217.69 | 216.76 | 214.74 | 213.67
365.15 K | 226.54 | 224.26 | 222.65 | 220.51 | 219.44
